From patent US20250092065A1, “2-(INDAZOL-5-YL)-6-(PIPERIDIN-4-YL)-1,7-NAPHTHYRIDINE DERIVATIVES AND RELATED COMPOUNDS AS MODULATORS FOR SPLICING NUCLEIC ACIDS AND FOR THE TREATMENT OF PROLIFERATIVE DISEASES” (REMIX THERAPEUTICS INC., priority 2022, published 2025)
pIC50: −log10 of the molar value. Where two headings read alike, the source gives them in different places.

Tests used:
[1] = tested on: Target C; assay: RT-qPCR canonical junction panel assay, Target C mRNA; type: cell-based; details: Table 4, read-out: Target C IC50 (decrease in CJ mRNA levels)
Method: Compounds described herein were used to modulate RNA transcript abundance in cells. The expression of a target mRNA was measured by detecting the formation of an exon-exon junction in the canonical transcript (CJ). A compound mediated exon-inclusion event was detected by observing an increase in formation of a new junction with an alternative exon (AJ). Real-time qPCR assays were used to detect these splicing switches and interrogate the potency of various compounds towards different target genes. A high-throughput real time quantitative PCR (RT-qPCR) assay was developed to measure these two isoforms of the mRNA (CJ and AJ) for exemplary genes, such as HTT, SMN2, and MYB, together with a control housekeeping gene, GAPDH or GUSB or PPIA, used for normalization. Briefly, the A673 or K562 cell line was treated with various compounds described herein (e.g., compounds of Formula (I)). After treatment, the levels of the HTT, MYB, or SMN2 mRNA targets were determined from each sample of cell lysate by cDNA synthesis followed by qPCR.
The data analysis was performed by first determining the ΔCt vs the housekeeper gene. This ΔCt was then normalized against the DMSO control (ΔΔCt) and converted to RQ (relative quantification) using the 2^(−ΔΔCt) equation. The RQ were then converted to a percentage response by arbitrarily setting an assay window of 3.5 and 4.0 ΔCt for HTT-CJ and MYB-CJ respectively and an assay window of 9 and 3 ΔCt for HTT-AJ and MYB-AJ in 96 well format (50,000 K562 cells/well and 15,000 A673 cells per well) and an assay window of 3 and 4 ΔCt for HTT-CJ and MYB-CJ respectively and an assay window of 5 and 3 ΔCt for HTT-AJ and MYB-AJ respectively in 384 well format (8,000 K562 cells/well example). […] The percentage response was then fitted to the 4 parametric logistic equation to evaluate the concentration dependence of compound treatment. The increase in AJ mRNA is reported as AC50 (compound concentration having 50% response in AJ increase) while the decrease in CJ mRNA levels is reported as IC50 (compound concentration having […] in CJ decrease).
Additional studies were carried out for a larger panel of genes using the protocol provided above. The junction between flanking upstream and downstream exons was used to design canonical junction Qpcr assays. At least one of the forward primer, reverse primer or the CY5-labeled 5′ nuclease probe (with 3′ quencher such as ZEN/Iowa Black FQ) was designed to overlap with the exon junction to capture the CJ Mrna transcript. BLAST was used to confirm the specificity of the probeset and parameters suCH As melting temperature, GC content, amplicon size, and primer dimer formation are considered during their design. Data for the decrease in CJ Mrna levels for four exemplary genes (HTT, SMN2, MYB, and Target C) analyzed in this panel are reported as IC50 (compound concentration having […] in CJ decrease).

[2] = tested on: HTT mRNA; assay: RT-qPCR splicing assay, HTT mRNA canonical (CJ) and alternative (AJ) junction; type: cell-based, human; details: Homo sapiens
How it was run: (§1)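 Both isoforms, CJ and AJ, read by qPCR from crude lysates of treated A673 or K562 cells; 24 h, 37 °C, maximum 10 uM. Normalization: housekeeper ΔCt, then DMSO ΔΔCt.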

[3] = tested on: MYB mRNA; assay: RT-qPCR splicing assay, MYB mRNA canonical (CJ) and alternative (AJ) junction; type: cell-based, human; details: Homo sapiens
How it was run: as §1

[4] = tested on: SMN2 mRNA; assay: RT-qPCR splicing assay, SMN2 mRNA; type: cell-based, human; details: Homo sapiens, canonical junction qPCR panel, Table 4; read-out: SMN2 IC50 (decrease in CJ mRNA levels)
How it was run: as §1

[5] = tested on: K562 cells; assay: Cell Titer Glo 2.0 cell viability (toxicity) assay, K562; details: 500 cells/well, 72 hours
[6] = HTT alternative junction mRNA, RT-qPCR, read-out: HTT AJ (increase in AJ mRNA, AC50)
[7] = HTT canonical junction mRNA, RT-qPCR, read-out: HTT CJ (decrease in CJ mRNA levels, IC50)
[8] = canonical junction qPCR panel, Table 4, read-out: HTT IC50 (decrease in CJ mRNA levels)
[9] = MYB alternative junction mRNA, RT-qPCR, read-out: MYB AJ (increase in AJ mRNA, AC50)
[10] = MYB canonical junction mRNA, RT-qPCR, read-out: MYB CJ (decrease in CJ mRNA levels, IC50)
[11] = canonical junction qPCR panel, Table 4, read-out: MYB IC50 (decrease in CJ mRNA levels)
[12] = RT-qPCR, HTT alternative junction mRNA increase, read-out: HTT AJ (increase in alternative junction mRNA, AC50)
[13] = RT-qPCR, HTT canonical junction mRNA decrease, read-out: HTT CJ (decrease in canonical junction mRNA, IC50)
[14] = RT-qPCR, MYB alternative junction mRNA increase, read-out: MYB AJ (increase in alternative junction mRNA, AC50)
[15] = RT-qPCR, MYB canonical junction mRNA decrease, read-out: MYB CJ (decrease in canonical junction mRNA, IC50)

Structure (SMILES): Cc1nc2c(F)c(O)c(-c3ccc4nc(N5CC[C@@H](NC6(CF)CC6)C5)ccc4n3)cc2o1 (single isomer, unassigned) [Compound 372]
- pIC50 [1]: > 7.00
- AC50 [2, 6]: < 100 nM
- pIC50 [2, 7]: > 7.00
- pIC50 [2, 8]: > 7.00
- AC50 [3, 9]: < 100 nM
- pIC50 [3, 10]: > 7.00
- pIC50 [3, 11]: > 7.00
- pIC50 [4]: > 7.00

Structure (SMILES): Cc1c(O)c(-c2nc(C3CCC3)c3cc(N4C[C@H](C)N[C@@H](C)C4)ccc3n2)cc2cn(C)nc12 (single isomer, unassigned) [Compound 794]
- pIC50 [1]: < 5.00
- AC50 [2, 12]: 1000 to 10000 nM
- pIC50 [2, 13]: < 5.00
- pIC50 [2, 8]: < 5.00
- Effect of Exemplary Compounds on Cell Viability, K562 [5]: B (B represents 100-1000 nM)
- AC50 [3, 14]: 100 to 1000 nM
- pIC50 [3, 15]: 6.00 to 7.00
- pIC50 [3, 11]: 6.00 to 7.00

Structure (SMILES): Cc1cn2nc(-c3ncc4cc(N5C[C@H](C)N[C@@H](C)C5)ccc4n3)cc(C)c2n1 (single isomer, unassigned) [Compound 798]
- pIC50 [1]: < 5.00
- AC50 [2, 12]: > 10000 nM
- pIC50 [2, 13]: < 5.00
- pIC50 [2, 8]: < 5.00
- Effect of Exemplary Compounds on Cell Viability, K562 [5]: C (C represents 1000-9999 nM)
- AC50 [3, 14]: 100 to 1000 nM
- pIC50 [3, 15]: 5.00 to 6.00
- pIC50 [3, 11]: 5.00 to 6.00

Structure (SMILES): Cc1nc2c(F)c(O)c(-c3ccc4nc(N5CCC(NCC6CC6)C5)ccc4n3)cc2o1 (stereo not drawn) [Cmpd 294]
- pIC50 [1]: > 7.00
- AC50 [2, 6]: < 100 nM
- pIC50 [2, 7]: > 7.00
- pIC50 [2, 8]: > 7.00
- AC50 [3, 9]: < 100 nM
- pIC50 [3, 10]: > 7.00
- pIC50 [3, 11]: > 7.00
- pIC50 [4]: > 7.00

Structure (SMILES): Cc1c(O)c(-c2nc(C3CCC3)c3cc(N4C[C@@H](C)N[C@@H](C)C4)ccc3n2)cc2cn(C)nc12 [Compound 790, 5-{4-cyclobutyl-6-[(3R,5S)-3,5-dimethylpiperazin-1-yl]quinazolin-2-yl}-2,7-dimethylindazol-6-ol]
- pIC50 [1]: < 5.00
- AC50 [2, 12]: > 10000 nM
- pIC50 [2, 13]: 5.00 to 6.00
- pIC50 [2, 8]: 5.00 to 6.00
- Effect of Exemplary Compounds on Cell Viability, K562 [5]: C (C represents 1000-9999 nM)
- AC50 [3, 14]: 1000 to 10000 nM
- pIC50 [3, 15]: 5.00 to 6.00
- pIC50 [3, 11]: 5.00 to 6.00

Structure (SMILES): C[C@@H]1CN(c2ccc3nc(-c4cc5cn(C)nc5cc4O)nc(C4CCC4)c3c2)C[C@H](C)N1 [Compound 791, 5-{4-cyclobutyl-6-[(3R,5S)-3,5-dimethylpiperazin-1-yl]quinazolin-2-yl}-2-methylindazol-6-ol]
- pIC50 [1]: < 5.00
- AC50 [2, 12]: > 10000 nM
- pIC50 [2, 13]: 5.00 to 6.00
- pIC50 [2, 8]: 5.00 to 6.00
- Effect of Exemplary Compounds on Cell Viability, K562 [5]: B (B represents 100-1000 nM)
- AC50 [3, 14]: 1000 to 10000 nM
- pIC50 [3, 15]: 5.00 to 6.00
- pIC50 [3, 11]: 5.00 to 6.00

Structure (SMILES): Cc1c(O)c(-c2ncc3cc(N4CCNC5(CC5)C4)ccc3n2)cc2cn(C)nc12 [Compound 792, 5-(6-{4,7-diazaspiro[2.5]octan-7-yl}quinazolin-2-yl)-2,7-dimethylindazol-6-ol]
- pIC50 [1]: 5.00 to 6.00
- AC50 [2, 12]: 1000 to 10000 nM
- pIC50 [2, 13]: 6.00 to 7.00
- pIC50 [2, 8]: 6.00 to 7.00
- Effect of Exemplary Compounds on Cell Viability, K562 [5]: B (B represents 100-1000 nM)
- AC50 [3, 14]: 100 to 1000 nM
- pIC50 [3, 15]: 6.00 to 7.00
- pIC50 [3, 11]: 6.00 to 7.00

Structure (SMILES): Cc1nc(-c2cc3cn(C)nc3c(C)c2O)nc2ccc(N3CCNC4(CC4)C3)cc12 [Compound 793, 5-(6-{4,7-diazaspiro[2.5]octan-7-yl}-4-methylquinazolin-2-yl)-2,7-dimethylindazol-6-ol]
- pIC50 [1]: < 5.00
- AC50 [2, 12]: 1000 to 10000 nM
- pIC50 [2, 13]: 5.00 to 6.00
- pIC50 [2, 8]: 5.00 to 6.00
- Effect of Exemplary Compounds on Cell Viability, K562 [5]: B (B represents 100-1000 nM)
- AC50 [3, 14]: 100 to 1000 nM
- pIC50 [3, 15]: 6.00 to 7.00
- pIC50 [3, 11]: 6.00 to 7.00

Structure (SMILES): Cc1cn2nc(-c3ncc4cc(N5CCNC6(CC6)C5)ccc4n3)cc(C)c2n1 [Compound 795, 2-(2,8-dimethylimidazo[1,2-b]pyridazin-6-yl)-6-(4,7-diazaspiro[2.5]octan-7-yl)quinazoline]
- pIC50 [1]: < 5.00
- AC50 [2, 12]: > 10000 nM
- pIC50 [2, 13]: < 5.00
- pIC50 [2, 8]: < 5.00
- Effect of Exemplary Compounds on Cell Viability, K562 [5]: C (C represents 1000-9999 nM)
- AC50 [3, 14]: 1000 to 10000 nM
- pIC50 [3, 15]: 5.00 to 6.00
- pIC50 [3, 11]: 5.00 to 6.00

Structure (SMILES): Cn1cc2cc(-c3ncc4cc(N5CCC(N6CCC6)CC5)ccc4n3)c(O)cc2n1 [Compound 801, 5-{6-[4-(azetidin-1-yl)piperidin-1-yl]quinazolin-2-yl}-2-methylindazol-6-ol]
- pIC50 [1]: 5.00 to 6.00
- AC50 [2, 12]: 1000 to 10000 nM
- pIC50 [2, 13]: 5.00 to 6.00
- pIC50 [2, 8]: 5.00 to 6.00
- Effect of Exemplary Compounds on Cell Viability, K562 [5]: B (B represents 100-1000 nM)
- AC50 [3, 14]: 1000 to 10000 nM
- pIC50 [3, 15]: 6.00 to 7.00
- pIC50 [3, 11]: 6.00 to 7.00

Structure (SMILES): C[C@H]1CN(c2ccc3nc(-c4cc(F)c5nn(C)cc5c4)ncc3c2)C[C@H](C)N1 [Compound 802, 6-[(3S,5S)-3,5-dimethylpiperazin-1-yl]-2-(7-fluoro-2-methylindazol-5-yl)quinazoline]
- pIC50 [1]: 6.00 to 7.00
- AC50 [2, 12]: 100 to 1000 nM
- pIC50 [2, 13]: 6.00 to 7.00
- pIC50 [2, 8]: 6.00 to 7.00
- Effect of Exemplary Compounds on Cell Viability, K562 [5]: B (B represents 100-1000 nM)
- AC50 [3, 14]: 100 to 1000 nM
- pIC50 [3, 15]: 6.00 to 7.00
- pIC50 [3, 11]: 6.00 to 7.00

Structure (SMILES): Cc1cn2nc(-c3ccc4cc(N5CCNC6(CC6)C5)cc(F)c4n3)cc(C)c2n1 [Compound 804, 6-{4,7-diazaspiro[2.5]octan-7-yl}-2-{2,8-dimethylimidazo[1,2-b]pyridazin-6-yl}-8-fluoroquinoline]
- pIC50 [1]: 6.00 to 7.00
- AC50 [2, 12]: 100 to 1000 nM
- pIC50 [2, 13]: 6.00 to 7.00
- pIC50 [2, 8]: 6.00 to 7.00
- Effect of Exemplary Compounds on Cell Viability, K562 [5]: B (B represents 100-1000 nM)
- AC50 [3, 14]: 100 to 1000 nM
- pIC50 [3, 15]: 6.00 to 7.00
- pIC50 [3, 11]: 6.00 to 7.00
